Assays:
[1] = system: human gastric cancer cell line MKN28; settings: cited from earlier work
[2] = system: primary cultures of human and murine microglia; settings: stimulated with endotoxins or Abeta 1-40; cited from earlier work
[3] = system: brain TNF production; settings: mice, intracerebroventricular lipopolysaccharide; cited from earlier work
[4] = system: AML blasts harboring FLT3/ITD mutations; settings: primary AML blasts harboring FLT3/ITD mutations; cited from earlier work
[5] = system: U87MG glioma cells; settings: cited from earlier work
[6] = biological target: ALK (Homo sapiens, UniProt Q9UM73); assay: AlphaScreen kinase assay, ALK; type: biochemical; settings: read-out: IC50, activity toward kinase ALK
Source text: (§1) AlphaScreen assay was used to screen additional kinases. The assay is similarly dependent on the phosphorylation of a peptide substrate. In this assay, an antibody that recognizes phosphorylated substrate is bound to an acceptor bead. The peptide substrate is attached to biotin, which binds to a donor head that contains streptavidin. Thus phosphorylated substrate is bound by antibody and streptavidin, bringing the donor and acceptor heads into close proximity when kinase is not inhibited. The donor produces singlet oxygen which results in emission from the acceptor when they are in close proximity. Conversely, when kinase is inhibited, the donor and acceptor beads are not associated and the emission from the acceptor is reduced.
(§2) AlphaScreen assays were done using compounds dissolved in DMSO to a concentration of 20 mM. The compounds were diluted accordingly to the desired final concentrations in each sample well, using 1:3 serial dilution for a total of 8 concentration points.

[7] = biological target: TrkA (Homo sapiens, UniProt P04629); assay: AlphaScreen kinase assay, TrkA; type: biochemical; settings: read-out: IC50, activity toward kinase TrkA
Source text: as §1, §2

[8] = biological target: T1, Flt3 (Homo sapiens, UniProt P36888); assay: Z'-Lyte FRET kinase assay (Invitrogen), Flt3; type: biochemical; settings: read-out: IC50, activity toward kinase Flt3
T1 construct: purchased Invitrogen (assay run by Invitrogen)
T1 sequence (P36888 27-993): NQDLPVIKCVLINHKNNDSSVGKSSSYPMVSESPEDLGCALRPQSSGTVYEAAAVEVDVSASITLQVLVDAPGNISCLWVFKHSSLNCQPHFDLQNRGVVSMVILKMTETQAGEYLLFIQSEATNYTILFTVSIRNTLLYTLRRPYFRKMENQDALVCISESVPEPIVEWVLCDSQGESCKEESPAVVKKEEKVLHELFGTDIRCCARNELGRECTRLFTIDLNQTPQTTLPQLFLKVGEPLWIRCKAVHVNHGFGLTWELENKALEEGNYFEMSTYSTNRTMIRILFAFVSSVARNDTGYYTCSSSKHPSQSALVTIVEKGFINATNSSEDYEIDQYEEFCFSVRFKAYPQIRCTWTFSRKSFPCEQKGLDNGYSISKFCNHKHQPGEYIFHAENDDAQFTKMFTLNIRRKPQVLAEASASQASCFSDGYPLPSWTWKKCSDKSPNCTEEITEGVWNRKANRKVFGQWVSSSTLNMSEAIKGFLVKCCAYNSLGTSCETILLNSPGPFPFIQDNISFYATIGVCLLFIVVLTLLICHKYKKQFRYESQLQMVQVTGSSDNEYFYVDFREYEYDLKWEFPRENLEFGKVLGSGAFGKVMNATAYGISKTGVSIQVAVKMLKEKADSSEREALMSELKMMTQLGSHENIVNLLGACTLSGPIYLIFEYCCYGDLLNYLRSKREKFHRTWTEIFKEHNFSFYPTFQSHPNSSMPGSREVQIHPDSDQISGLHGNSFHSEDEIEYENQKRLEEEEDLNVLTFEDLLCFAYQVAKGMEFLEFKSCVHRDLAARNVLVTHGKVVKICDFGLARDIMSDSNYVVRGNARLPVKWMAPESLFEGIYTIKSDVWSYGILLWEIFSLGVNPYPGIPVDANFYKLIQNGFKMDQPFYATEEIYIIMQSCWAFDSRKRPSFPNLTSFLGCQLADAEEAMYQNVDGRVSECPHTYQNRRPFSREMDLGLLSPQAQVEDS
Source text: The effect of potential modulators of kinase activity can be measured in a variety of different assays known in the art. For example, direct radiometric, indirect FRET or AlphaScreen assays may be used to assess the level of phosphorylation of a substrate in the presence of test compounds in order to determine the inhibitory affect of the compound on the kinase. Invitrogen (Carlsbad, Calif.) uses a FRET based assay for Btk, EGFR, EphB2, Flt3, lrak4, Kdr, MAP2K1, MAPKAPK2, PDGFRB, PKC theta, Stk6 and Yes. For these assays, compounds of the invention were screened by Invitrogen using Z′-Lyte™ kinase assay.
Briefly, the Invitrogen kinase assay involves use of a specific peptide substrate optimized for each kinase, containing a fluorophore at each end that make up the FRET pair. The peptide sensitivity to proteolytic cleavage depends on phosphorylation of the peptide. Non-phosphorylated peptide is cleaved by a protease while peptide phosphorylated by the kinase is not cleaved. Cleavage of the peptide disrupts the FRET between the donor (coumarin) and acceptor (fluorescein) fluorophores, resulting in an increase in the ratio of donor emission to acceptor emission. The emission ratio of coumarin to fluorescein is used to assess the reaction progress. The extent of phosphorylation is determined from the emission ratio, which is low when the kinase is active (phosphorylated peptide is not cleaved, FRET pair connected) or higher for inhibited kinase (non-phosphorylated peptide is cleaved, FRET pair separated). Thus, the assay involves a kinase reaction in the presence of varying concentrations of a given compound, a development reaction with site specific protease, and detection of the fluorescent emission ratio of coumarin and fluorscein. […] Reaction conditions for each kinase are determined to provide optimal reaction times, incubation temperature, kinase and ATP concentrations. Test samples are made up in 1× kinase buffer (50 mM HEPES pH 7.5, 50 mM MgCl2, 5 mM EGTA, 0.05% BRIJ-35) and compound at desired concentration prepared in DMSO such that the final DMSO is 1%. […] Typically, assay plates are prepared to 10 μl final volume per sample, adding 2.5 μl of compound at 4× the desired concentration in 4% DMSO (serial dilution of compound provides concentration curve), 5 μl of the desired kinase mixed with Z′-LYTE™ peptide substrate (2× in 2× kinase buffer, final peptide at 2 μM), and 2.5 μl of 4×ATP solution. All kinase except for MAP2K1 were at 10 μM ATP in the kinase reaction, while MAP2K1 was at 100 μM. Samples are mixed and the kinase reaction is incubated 1 hour at room temperature, after which 5 μl of development solution is added and mixed. After incubation for another 1 hour at room temperature, 5 μl of stop reagent is added to each sample and mixed. The fluorescence signals are measured to determine the emission ratio.

[9] = biological target: T2, B-Raf (Homo sapiens, UniProt P15056); assay: AlphaScreen kinase assay, B-Raf; type: biochemical; settings: read-out: IC50, activity toward kinase B-Raf
T2 construct: purchased Upstate Biotechnology

[10] = biological target: T3, c-Raf-1 (Homo sapiens, UniProt P04049); assay: AlphaScreen kinase assay, c-Raf-1; type: biochemical; settings: read-out: IC50, activity toward kinase c-Raf-1
T3 construct: purchased Upstate Biotechnology

[11] = biological target: T4, Kdr (Homo sapiens, UniProt P35968); assay: Z'-Lyte FRET kinase assay (Invitrogen), Kdr; type: biochemical; settings: read-out: IC50, activity toward kinase Kdr
T4 construct: purchased Invitrogen (assay run by Invitrogen)

[12] = biological target: Frk (Homo sapiens, UniProt P42685); assay: AlphaScreen kinase assay, Frk; type: biochemical; settings: read-out: IC50, activity toward kinase Frk
Source text: as §1, §2

[13] = biological target: Brk (Homo sapiens, UniProt Q13882); assay: AlphaScreen kinase assay, Brk; type: biochemical; settings: read-out: IC50, activity toward kinase Brk
Source text: as §1, §2

[14] = biological target: T5, B-Raf V600E (Homo sapiens, UniProt P15056, V600E); assay: AlphaScreen kinase assay, B-Raf V600E; type: biochemical; settings: read-out: IC50, activity toward kinase B-Raf V600E
T5 construct: P4254. pFastBacBD-CDC37 BRAF D437-K722-X, V600E; His6 with pFastBac HT leader (TEV site) (N); made in house; host or cells: Sf9 (baculovirus; chaperone CDC37 co-expressed)
T5 sequence (P15056 with tags, fused parts or gaps V600E): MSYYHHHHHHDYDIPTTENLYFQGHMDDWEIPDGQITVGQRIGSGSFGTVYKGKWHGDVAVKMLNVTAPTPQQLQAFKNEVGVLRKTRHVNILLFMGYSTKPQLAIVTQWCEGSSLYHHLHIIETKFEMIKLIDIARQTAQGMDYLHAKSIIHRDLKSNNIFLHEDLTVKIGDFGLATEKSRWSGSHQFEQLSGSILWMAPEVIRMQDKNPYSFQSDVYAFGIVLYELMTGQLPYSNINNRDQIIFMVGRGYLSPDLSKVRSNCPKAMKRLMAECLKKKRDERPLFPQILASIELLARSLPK

Sequence of Frk (P42685 whole entry): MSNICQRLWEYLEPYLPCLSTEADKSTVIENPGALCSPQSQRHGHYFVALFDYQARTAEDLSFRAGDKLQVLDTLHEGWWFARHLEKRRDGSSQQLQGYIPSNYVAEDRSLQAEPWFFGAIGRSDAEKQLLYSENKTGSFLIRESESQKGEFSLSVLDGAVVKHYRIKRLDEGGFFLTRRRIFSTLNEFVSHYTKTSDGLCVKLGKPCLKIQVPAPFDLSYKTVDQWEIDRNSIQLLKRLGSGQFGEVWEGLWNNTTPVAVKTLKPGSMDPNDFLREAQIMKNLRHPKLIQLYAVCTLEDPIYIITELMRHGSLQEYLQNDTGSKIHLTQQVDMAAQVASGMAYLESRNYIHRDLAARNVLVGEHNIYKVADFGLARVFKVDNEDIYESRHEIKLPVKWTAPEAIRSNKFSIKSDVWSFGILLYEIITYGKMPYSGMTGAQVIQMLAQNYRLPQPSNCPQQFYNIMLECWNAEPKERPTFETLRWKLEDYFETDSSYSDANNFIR
Sequence of ALK (Q9UM73 19-1620): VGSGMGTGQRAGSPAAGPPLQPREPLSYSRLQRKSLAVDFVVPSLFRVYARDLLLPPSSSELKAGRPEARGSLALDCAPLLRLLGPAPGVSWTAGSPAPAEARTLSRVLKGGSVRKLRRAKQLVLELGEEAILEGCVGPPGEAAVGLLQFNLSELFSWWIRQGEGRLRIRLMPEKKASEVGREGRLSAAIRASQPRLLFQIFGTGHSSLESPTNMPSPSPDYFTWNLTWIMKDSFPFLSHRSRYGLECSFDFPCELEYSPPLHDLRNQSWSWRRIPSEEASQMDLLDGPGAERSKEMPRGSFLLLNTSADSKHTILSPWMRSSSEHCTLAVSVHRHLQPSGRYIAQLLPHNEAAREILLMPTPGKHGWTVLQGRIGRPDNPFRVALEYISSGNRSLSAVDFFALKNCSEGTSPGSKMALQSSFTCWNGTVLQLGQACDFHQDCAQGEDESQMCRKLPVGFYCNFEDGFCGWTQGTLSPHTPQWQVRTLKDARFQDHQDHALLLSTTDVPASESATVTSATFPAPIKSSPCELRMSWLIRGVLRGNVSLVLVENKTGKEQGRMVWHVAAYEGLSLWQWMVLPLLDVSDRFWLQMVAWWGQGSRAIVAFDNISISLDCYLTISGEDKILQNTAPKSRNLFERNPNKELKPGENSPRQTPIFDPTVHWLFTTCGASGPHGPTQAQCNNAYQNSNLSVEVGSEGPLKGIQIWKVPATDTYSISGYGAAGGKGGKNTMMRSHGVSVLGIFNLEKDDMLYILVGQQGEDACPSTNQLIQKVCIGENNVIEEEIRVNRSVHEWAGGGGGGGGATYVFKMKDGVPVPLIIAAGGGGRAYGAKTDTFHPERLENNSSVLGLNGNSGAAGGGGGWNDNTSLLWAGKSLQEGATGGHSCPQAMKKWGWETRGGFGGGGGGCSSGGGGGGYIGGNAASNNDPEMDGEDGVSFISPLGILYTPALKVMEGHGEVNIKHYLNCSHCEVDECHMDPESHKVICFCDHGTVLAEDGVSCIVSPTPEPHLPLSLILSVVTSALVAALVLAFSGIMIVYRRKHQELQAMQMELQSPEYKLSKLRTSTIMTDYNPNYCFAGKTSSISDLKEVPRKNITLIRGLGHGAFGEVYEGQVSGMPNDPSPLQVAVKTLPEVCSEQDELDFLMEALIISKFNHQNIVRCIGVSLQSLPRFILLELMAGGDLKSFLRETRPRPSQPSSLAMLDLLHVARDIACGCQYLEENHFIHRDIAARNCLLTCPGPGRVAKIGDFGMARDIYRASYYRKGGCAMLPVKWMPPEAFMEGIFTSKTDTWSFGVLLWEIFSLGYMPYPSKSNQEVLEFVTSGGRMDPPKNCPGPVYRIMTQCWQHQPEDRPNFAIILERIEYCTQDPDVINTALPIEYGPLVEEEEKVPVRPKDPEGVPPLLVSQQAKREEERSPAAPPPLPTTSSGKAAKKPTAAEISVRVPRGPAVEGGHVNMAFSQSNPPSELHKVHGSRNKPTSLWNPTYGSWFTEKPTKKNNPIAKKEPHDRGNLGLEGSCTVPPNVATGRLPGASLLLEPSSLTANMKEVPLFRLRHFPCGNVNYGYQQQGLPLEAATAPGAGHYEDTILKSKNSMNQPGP
Sequence of Brk (Q13882 whole entry): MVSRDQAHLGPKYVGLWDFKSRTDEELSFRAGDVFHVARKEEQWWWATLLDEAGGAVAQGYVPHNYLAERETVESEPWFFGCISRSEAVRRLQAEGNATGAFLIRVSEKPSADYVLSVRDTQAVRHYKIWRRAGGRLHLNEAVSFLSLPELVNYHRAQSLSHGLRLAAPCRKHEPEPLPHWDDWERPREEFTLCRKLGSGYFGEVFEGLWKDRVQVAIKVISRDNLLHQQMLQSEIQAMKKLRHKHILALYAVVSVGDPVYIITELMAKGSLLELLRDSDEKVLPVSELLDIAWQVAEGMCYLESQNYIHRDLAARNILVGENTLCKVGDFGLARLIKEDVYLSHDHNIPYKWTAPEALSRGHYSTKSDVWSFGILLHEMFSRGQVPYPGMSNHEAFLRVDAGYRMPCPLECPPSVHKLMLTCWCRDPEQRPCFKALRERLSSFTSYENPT
T4 sequence (P35968 20-1356): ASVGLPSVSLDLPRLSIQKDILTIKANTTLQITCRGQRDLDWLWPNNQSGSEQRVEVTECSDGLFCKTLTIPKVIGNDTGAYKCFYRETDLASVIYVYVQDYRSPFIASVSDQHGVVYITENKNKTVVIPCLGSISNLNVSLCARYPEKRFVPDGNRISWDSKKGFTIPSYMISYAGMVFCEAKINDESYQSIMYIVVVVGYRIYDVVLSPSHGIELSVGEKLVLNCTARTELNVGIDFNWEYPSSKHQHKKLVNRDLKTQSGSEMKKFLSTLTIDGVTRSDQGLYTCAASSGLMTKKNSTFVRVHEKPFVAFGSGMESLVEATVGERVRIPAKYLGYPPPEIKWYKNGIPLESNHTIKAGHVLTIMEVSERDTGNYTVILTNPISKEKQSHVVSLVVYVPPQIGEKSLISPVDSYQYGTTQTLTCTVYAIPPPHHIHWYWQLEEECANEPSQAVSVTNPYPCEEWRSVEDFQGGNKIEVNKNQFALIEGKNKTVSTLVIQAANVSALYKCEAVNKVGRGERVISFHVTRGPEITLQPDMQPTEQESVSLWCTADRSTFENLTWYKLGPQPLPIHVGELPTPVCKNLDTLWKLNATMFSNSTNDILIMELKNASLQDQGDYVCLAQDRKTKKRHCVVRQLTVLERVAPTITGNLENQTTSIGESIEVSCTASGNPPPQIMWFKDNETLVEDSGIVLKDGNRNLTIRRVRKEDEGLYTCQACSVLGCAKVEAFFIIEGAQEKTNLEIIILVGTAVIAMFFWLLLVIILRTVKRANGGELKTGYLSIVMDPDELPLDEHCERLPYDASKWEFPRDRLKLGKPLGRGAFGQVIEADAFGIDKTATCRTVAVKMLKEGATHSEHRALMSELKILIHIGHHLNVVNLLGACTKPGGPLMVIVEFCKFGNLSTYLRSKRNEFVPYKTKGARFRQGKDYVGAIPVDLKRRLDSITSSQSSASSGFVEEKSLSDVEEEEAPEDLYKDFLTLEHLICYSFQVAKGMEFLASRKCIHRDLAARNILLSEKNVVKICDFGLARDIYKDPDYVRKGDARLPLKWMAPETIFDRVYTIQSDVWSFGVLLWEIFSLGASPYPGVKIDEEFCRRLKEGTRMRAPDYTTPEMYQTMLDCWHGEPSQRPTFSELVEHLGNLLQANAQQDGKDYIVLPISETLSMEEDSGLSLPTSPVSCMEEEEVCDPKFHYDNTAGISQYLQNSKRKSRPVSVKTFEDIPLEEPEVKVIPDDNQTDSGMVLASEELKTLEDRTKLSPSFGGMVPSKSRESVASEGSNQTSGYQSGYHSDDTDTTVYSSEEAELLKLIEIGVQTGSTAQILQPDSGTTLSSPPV
T2 sequence (P15056 whole entry): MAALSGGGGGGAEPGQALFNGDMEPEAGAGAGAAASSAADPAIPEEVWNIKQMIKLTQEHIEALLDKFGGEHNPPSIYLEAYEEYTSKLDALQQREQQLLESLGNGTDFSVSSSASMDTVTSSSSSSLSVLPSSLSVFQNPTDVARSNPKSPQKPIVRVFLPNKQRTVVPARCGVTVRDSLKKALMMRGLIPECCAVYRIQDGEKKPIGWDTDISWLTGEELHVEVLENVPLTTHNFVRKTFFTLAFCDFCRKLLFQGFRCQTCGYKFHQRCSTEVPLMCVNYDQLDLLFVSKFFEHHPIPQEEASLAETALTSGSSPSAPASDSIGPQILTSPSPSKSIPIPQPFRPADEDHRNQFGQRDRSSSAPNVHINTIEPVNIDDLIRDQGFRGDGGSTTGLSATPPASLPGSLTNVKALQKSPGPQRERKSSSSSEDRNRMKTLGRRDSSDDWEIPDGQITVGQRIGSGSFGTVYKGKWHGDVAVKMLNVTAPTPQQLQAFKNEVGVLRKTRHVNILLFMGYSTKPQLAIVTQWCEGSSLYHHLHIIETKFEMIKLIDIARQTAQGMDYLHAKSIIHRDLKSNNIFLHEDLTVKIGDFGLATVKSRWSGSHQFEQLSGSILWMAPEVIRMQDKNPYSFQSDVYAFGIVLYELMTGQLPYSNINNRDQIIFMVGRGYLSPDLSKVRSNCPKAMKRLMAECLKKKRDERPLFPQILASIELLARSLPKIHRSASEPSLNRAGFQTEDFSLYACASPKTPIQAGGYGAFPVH

Q: Which “proliferation and growth of MKN28 cells” value [1] does the source give for `COc1ccc2c(c1)c(CC(=O)O)c(C)n2C(=O)c1ccc(Cl)cc1` [indomethacin] here?
A: significantly inhibit proliferation and growth

Q: For `CCSCc1ccc2c(c1)c1c3c(c4c5cc(CSCC)ccc5n5c4c1n2[C@H]1C[C@](O)(C(=O)OC)[C@]5(C)O1)CNC3=O` [CEP-1347], which “cytokine production (TNF-alpha, IL-6, MCP-1)” value [2] is on record?
A: reduced cytokine production

Q: And the “brain TNF production” value [3]?
A: inhibited brain TNF production

Q: Which “cytotoxicity to AML blasts” value [4] does the source give for `Cc1cc2ncc(-c3ccccc3)nc2cc1C` [AG1295] here?
A: specifically cytotoxic

Q: With `CS(=O)(=O)Nc1ccc([N+](=O)[O-])cc1OC1CCCCC1` [NS-398] as the molecule, how does the “proliferation and growth of MKN28 cells” value [1] read?
A: significantly inhibit proliferation and growth

Q: With `CN[C@@H]1C[C@H]2O[C@@](C)([C@@H]1OC)n1c3ccccc3c3c4c(c5c6ccccc6n2c5c31)C(=O)N[C@H]4O` [UCN-01, 7-hydroxystaurosporine] as the molecule, how does the “increase of the cytotoxicity of TMZ” value ([5]; combined with temozolomide) read?
A: 5 fold

Q: And the “toxicity of the inhibitor alone” value ([5]; without TMZ)?
A: not in itself toxic

Q: Which results are given for `CCCS(=O)(=O)Nc1ccc(F)c(C(OC)c2c[nH]c3ncc(OC)cc23)c1F` (stereo not shown) [Compound P-1244, Propane-1-sulfonic acid {2,4-difluoro-3-[methoxy-(5-methoxy-1H-pyrrolo[2,3-b]pyridin-3-yl)-methyl]-phenyl}-amide]?
A: IC50 [6]: ≤ 10 µM; IC50 [7]: ≤ 10 µM; IC50 [8]: ≤ 10 µM; IC50 [9]: ≤ 10 µM; IC50 [10]: ≤ 10 µM; IC50 [11]: ≤ 10 µM; IC50 [12]: ≤ 10 µM; IC50 [13]: ≤ 10 µM; IC50 [14]: ≤ 10 µM
